Measurements: paper PMC7269146, “Jingzhaotoxin-X, a gating modifier of Kv4.2 and Kv4.3 potassium channels purified from the venom of the Chinese tarantula Chilobrachys jingzhao” (The Journal of Venomous Animals and Toxins Including …, 2020)
Where a SMILES comes first, the peptide text is derived from it. Bridges are numbered along the chain shown (N, C = ends).

Columns and labels:
Kv4.2 [1] = target: T1, Kv4.2 (Rattus norvegicus, UniProt Q63881); assay: kinetic constants of JZTX-X at Kv4.2 channel (wash-in / wash-out); type: cell-based; settings: test conc. 0.2 μM, n = 6
T1 construct: expressed in transfected cells; host or cells: HEK293t
T1 sequence (Q63881 1-630): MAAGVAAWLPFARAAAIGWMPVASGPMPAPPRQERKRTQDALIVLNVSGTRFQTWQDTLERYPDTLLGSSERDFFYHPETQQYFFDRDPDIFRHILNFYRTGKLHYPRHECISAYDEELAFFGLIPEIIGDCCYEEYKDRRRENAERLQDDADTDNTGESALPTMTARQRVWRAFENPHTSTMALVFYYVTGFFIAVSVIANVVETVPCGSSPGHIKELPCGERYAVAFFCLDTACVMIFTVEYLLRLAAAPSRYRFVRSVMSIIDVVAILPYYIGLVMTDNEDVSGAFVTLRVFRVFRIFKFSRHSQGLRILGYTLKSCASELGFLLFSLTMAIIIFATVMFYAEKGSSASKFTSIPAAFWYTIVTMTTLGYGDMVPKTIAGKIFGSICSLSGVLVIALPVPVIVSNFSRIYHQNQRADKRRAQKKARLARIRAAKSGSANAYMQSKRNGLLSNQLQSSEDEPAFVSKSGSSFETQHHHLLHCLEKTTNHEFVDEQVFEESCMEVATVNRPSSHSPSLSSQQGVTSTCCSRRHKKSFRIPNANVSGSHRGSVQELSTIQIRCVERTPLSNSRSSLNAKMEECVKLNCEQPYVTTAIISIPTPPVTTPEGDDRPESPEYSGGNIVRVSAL
Text: (§1) Rat cDNA genes encoding Kv4.2 (Accession: NM_031730.2) and Kv4.3 (Accession: AB003587.1) were subcloned to vector pcDNA3.1. In addition, human cDNA genes encoding Nav1.7 (Accession: DQ857292.1) and Nav1.5 (Accession: AB158469.2) were subcloned to vectors pcDNA3.1-mod and pcDNA3.1, separately. Then, Kv4.2, Kv4.3, Nav1.5 and Nav1.7 constructs were transiently transfected into the human embryonic kidney 293t (HEK293t) cells using lipofectamine 2000 (Invitrogen, USA) in accordance with manufacturer protocols. Thereafter, HEK293 cells were inoculated within Dulbecco’s modified Eagle’s medium (DMEM) containing 10% fetal bovine serum (FBS) at 5% CO2 and 37°C. The Kv4.3 channel and the Kv4.2 counterpart were then transfected in the absence of β subunit. Subsequently, cells were incubated with a DNA-lipofectamine mixture (one reporter plasmid for green fluorescence protein and channel constructs) for 4-6 h, and were washed with the fresh medium.
An EPC-10 patch-clamp amplifier (HEKA, Germany) was employed to record the potassium currents at the configuration of whole-cell patch-clamp under an ambient temperature of 22-25°C. The resistance was 2.0-3.0 MΩ when the recording pipette contained a full volume of internal solution (supplemented with 140 mM KCl, 10 mM HEPES, 2.5 mM MgCl2, 5 mM ATP and 11 mM EGTA). KOH was utilized to adjust the pH to 7.2, while sucrose was employed to adjust the osmolarity to 310 mOsm/L. The culture medium was replaced with an external solution containing 150 mM NaCl, 2.5 mM CaCl2, 10 mM HEPES, 2 mM MgCl2, 5 mM KCl, and 10 mM D-glucose. Similarly, sucrose and NaOH were applied to adjust the osmolarity to 330 mOsm/L and pH to 7.4. […] The series resistance was maintained at about 5 MΩ, with 65-70% compensation. Finally, the leakage currents and linear capacitance were subtracted digitally according to the P/4 protocol.
As for kinetic calculations, curves as a function of peak currents vs. time were plotted from the toxin wash-out or wash-in moments. The software Sigmaplot 9.0 (Sigma, USA) was utilized to fit data to the first-order exponential equation. […]

Kv4.2 [2] = target: T1, Kv4.2; assay: paired-pulse protocol, recovery from inactivation of Kv4.2; type: cell-based; settings: n = 7
Text: as §1, with “medium. […]” for “medium.”
Figure 7. […] Thereafter, those elicited peak currents in test pulses were determined and standardized based on the peak currents for conditioning pulses within the identical cell. […] ( B ) The standardized recovery data were expressed as mean ± S.E. (n = 7), plotted as a function of inter-pulse interval, and fitted to one singular exponential function.

Compound: CC(C)C[C@@H]1NC(=O)[C@H](CCCCN)NC(=O)[C@H](Cc2ccc(O)cc2)NC(=O)[C@@H]2CSSC[C@@H]3NC(=O)[C@H](Cc4ccc(O)cc4)NC(=O)[C@H](Cc4ccccc4)NC(=O)CNC(=O)[C@H](C)NC(=O)[C@H](CSSC[C@H](NC(=O)[C@@H](N)CC(C)C)C(=O)N[C@@H](CO)C(=O)N[C@@H](CCCNC(=N)N)C(=O)N[C@@H](CCC(=O)O)C(=O)NCC(=O)N[C@@H](CCC(=O)O)C(=O)N[C@@H](Cc4ccccc4)C(=O)N2)NC(=O)[C@H](CSSC[C@@H](C(=O)N[C@@H](Cc2ccc(O)cc2)C(=O)N[C@@H](CCCNC(=N)N)C(=O)N[C@@H](CC(N)=O)C(=O)O)NC(=O)[C@H](Cc2c[nH]cn2)NC(=O)[C@H](CC(C)C)NC(=O)[C@H](C(C)C)NC(=O)[C@H](Cc2ccccc2)NC(=O)[C@H](C)NC(=O)[C@H](CCCCN)NC3=O)NC(=O)[C@H](CCCCN)NC(=O)[C@H](CCCNC(=N)N)NC1=O [JZTX-X, Jingzhaotoxin-X] (H-LCSREGEFCYKLRKCCAGFYCKAFVLHCYRN-OH; disulfide 2-16, 9-21, 15-28; N-terminus assumed)
- kmod, Kv4.2 channel (Kv4.2 [1]; inverse of τ of toxin wash-in): 0.089 ± 0.007 s⁻¹
- koff (Kv4.2 [1]; inverse of τ of toxin wash-out): 0.008 ± 0.0006 s⁻¹
- Kd (kinetic dissociation constant) (Kv4.2 [1]; method text: Kd = koff / kon, read-out: ki, Kv4.2 channel): 0.095 ± 0.03 µM
- effect on recovery of Kv4.2 (Kv4.2 [2]; paired-pulse protocol): remarkably accelerated the recovery of Kv4.2 channel inhibition
- time constant of recovery from inactivation, Kv4.2 (Kv4.2 [2]; toxin concentration not given, control 195.3 ± 31.6 ms, P<0.05, single exponential): 130.2 ± 25.3 ms
